Source: patent EP0366632A1, “Alternative energy substrates” (priority 1988, dated 1990)

What was measured:
Assay type in all cases: cell-based
Klebs. pneum. ATCC 25955 = test: Microorganism count in 2% ester emulsions (Example 12, Table 1); settings: 2% emulsion, phosphate buffer pH=7.0, +37°C, Additive/ml 1995
Description: (§1) In addition to ester, the emulsions also comprised egg-yolk phospholipid 1,2% and sterile water. The emulsions were prepared aseptically, by emulsifying sterile-filtered ester with a sterilized dispersion of egg-yolk phospholipids. Aliquots of these emulsions were diluted with a phosphate buffer (0.01 M, pH=7.0) in the proportions of 1 and 10 respectively, so as to obtain 2-percent emulsions. Various microorganisms according to Table 1 below were added to these emulsions. The samples were then incubated at +37°C for 20 hours. Counting of the number of microorganisms was started after 2 and 20 hours, in the manner described in microbiological literature. Checks were run on a pure phosphate buffer with additives of the same microorganisms as earlier, in parallel with the aforesaid experiments, while checks were run in Tryptone Soya broth (TSB) with additions of the same microorganisms, in order to ascertain whether or not the microorganisms could survive, i.e. could grow under the ideal conditions. […]

E. coli ATCC 8739 = test: as above; settings: 2% emulsion, phosphate buffer pH=7.0, +37°C, Additive/ml 6310
Description: as §1

Ulocladium sp. (mould) = test: as above; settings: 2% emulsion, phosphate buffer pH=7.0, +37°C, Additive/ml 2512
Description: as §1

Serr. maresc. ATCC 14756 = test: as above; settings: 2% emulsion, phosphate buffer pH=7.0, +37°C, Additive/ml 6310
Description: as §1

[1] = system: Cand. albicans ATCC 10231 (yeast); test: as above; settings: 2% emulsion, phosphate buffer pH=7.0, +37°C, Additive/ml 6310
Description: as §1

Staf. epiderm. = test: as above; settings: 2% emulsion, phosphate buffer pH=7.0, +37°C, Additive/ml 6310
Description: as §1

Proteus vulg. ATCC 13315 = test: as above; settings: 2% emulsion, phosphate buffer pH=7.0, +37°C, Additive/ml 1000
Description: as §1

[2] = system: Asperg. niger ATCC 16404 (mould); test: as above; settings: 2% emulsion, phosphate buffer pH=7.0, +37°C, Additive/ml 7943
Description: as §1

Cand. parapsil. (yeast) = test: as above; settings: 2% emulsion, phosphate buffer pH=7.0, +37°C, Additive/ml 5012
Description: as §1

Penicillium sp. (mould) = test: as above; settings: 2% emulsion, phosphate buffer pH=7.0, +37°C, Additive/ml 3162
Description: as §1

Enter. cloacae = test: as above; settings: 2% emulsion, phosphate buffer pH=7.0, +37°C, Additive/ml 1585
Description: as §1

[3] = system: Ps. aeruginosa ATCC 19429; test: as above; settings: 2% emulsion, phosphate buffer pH=7.0, +37°C, Additive/ml 7943
Description: as §1

Staf. aureus ATCC 6535 = test: as above; settings: 2% emulsion, phosphate buffer pH=7.0, +37°C, Additive/ml 5012
Description: as §1

[4] = system: Escherichia coli ATCC 8739; test: Microorganism count in 2% and 0.2% ester emulsions (Example 14); settings: for number of microorganisms: after 1-5 minutes, +37°C, starting concentration about 10⁴
Description: The emulsions contained egg-yolk phospholipid 1,2% and sterile water, in addition to ester. The emulsions were prepared aseptically, by emulsifying sterile-filtered ester with a steriled dispersion of egg-yolk phospholipids.
Aliquots of these emulsions were diluted with phosphate buffer (0.01 M, pH=7.0) in the proportions of 1 and 10 and 1 and 100 in respective emulsions. Escherichia coli ATCC 8739 was added to the solutions. The solutions were then incubated at +37°C for 20 hours. The microorganism count was carried out after 1-5 minutes, 2 and 20 hours, in the manner described in microbiological literature. Parallel with the above tests, a check was carried out on phospholipide solution 1,2% and TSB (Tryptone soya broth) with additions of Escherichia coli ATCC 8739. The latter substrate was tested to ascertain whether or not the control microorganisms were viable. […] The starting concentration was about 10⁴. In the samples containing 4-methyl-3-oxo-pentanoic acid ethyl ester having the concentrations of 2% and 0.2%, the number of microorganisms present per ml after 1-5 minutes was 0 and 10⁴ respectively. After 2 hours, the microorganism count was 0 and 10 respectively, and after 20 hours 0 and 10 respectively. In the samples containing 5-methyl-3-oxo-hexanoic acid ethyl ester with the concentrations of 2% and 0.2%, the microorganism count per ml was 10 and 10 respectively after 1-5 minutes, 0 and 0 respectively after 2 hours, and 0 and 0 respectively after 20 hours.

[5] = system: Candida albicans ATCC 10231; test: Microorganism count in 2% and 0.2% ester emulsions (Example 15); settings: after 20 hours
Description: The emulsions contained egg-yolk phospholipid 1,2% and sterile water, in addition to ester. The emulsions were prepared aseptically, by emulsifying sterile-filtered ester with a sterilized dispersion of egg-yolk phospholipids.
Aliquots of these emulsions were diluted with phosphate buffer (0.01 M, pH=7.0) in the proportions of 1 and 10 and 1 and 100 of respective emulsions. Candida albicans ATCC 10231 was added to the emulsions. The samples were then incubated at +37°C for 20 hours. The microorganism count was carried out after […], 2 and 20 hours, in the manner described in microbiological literature. Parallel with the above tests, a check was made on phospholipide solution 1,2% and TSB (Tryptone soya broth) with additions Candida albicans ATCC 10231. The latter substrate was tested to ascertain whether or not the microorganisms were viable. After 20 hours, the microorganism count/ml in TSB was 10⁷, and in the phospholipid solution 10⁴. The starting concentration was about 10⁴. After 1-5 minutes, the microorganism count per […] of the tests containing 4-methyl-3-oxo-pentanoic acid ethyl ester with concentrations of 2% and 0.2% was 10⁴ and 10⁴ respectively. After 2 hours, the microorganism count was 10² and 10⁴ respectively, and after 20 hours 0 and 10⁴. […] After 20 hours, the count was 0 and 10² respectively.

| SMILES | number of microorganisms (Klebs. pneum. ATCC 25955; 2 hrs) | number of microorganisms (Klebs. pneum. ATCC 25955; 20 hrs) | number of microorganisms (E. coli ATCC 8739; 2 hrs) | number of microorganisms (E. coli ATCC 8739; 20 hrs) | number of microorganisms (Ulocladium sp. (mould); 2 hrs) | number of microorganisms (Ulocladium sp. (mould); 20 hrs) | number of microorganisms (Serr. maresc. ATCC 14756; 2 hrs) | number of microorganisms (Serr. maresc. ATCC 14756; 20 hrs) | number of microorganisms ([1]; 2 hrs) | number of microorganisms ([1]; 20 hrs) | number of microorganisms (Staf. epiderm.; 2 hrs) | number of microorganisms (Staf. epiderm.; 20 hrs) | number of microorganisms (Proteus vulg. ATCC 13315; 2 hrs) | number of microorganisms (Proteus vulg. ATCC 13315; 20 hrs) | number of microorganisms ([2]; 2 hrs) | number of microorganisms ([2]; 20 hrs) | number of microorganisms (Cand. parapsil. (yeast); 2 hrs) | number of microorganisms (Cand. parapsil. (yeast); 20 hrs) | number of microorganisms (Penicillium sp. (mould); 2 hrs) | number of microorganisms (Penicillium sp. (mould); 20 hrs) | further results |
| --- | --- | --- | --- | --- | --- | --- | --- | --- | --- | --- | --- | --- | --- | --- | --- | --- | --- | --- | --- | --- | --- |
| CCOC(=O)CC(=O)CC(C)C [5-methyl-3-oxo-hexanoic acid ethyl ester] | 0 | 0 | 0 | 0 | 5012 | 0 | 0 | 0 | 1995 | 0 | 794 | 25 | 0 | 0 | 5012 | 5012 | 3162 | 0 | 3981 | 316 | number of microorganisms (Enter. cloacae; 2 hrs): 0; number of microorganisms (Enter. cloacae; 20 hrs): 0; number of microorganisms ([3]; 2 hrs): 0; number of microorganisms ([3]; 20 hrs): 0; number of microorganisms (Staf. aureus ATCC 6535; 2 hrs): 0; number of microorganisms (Staf. aureus ATCC 6535; 20 hrs): 0; number of microorganisms ([4]; 0.2%): 10 per ml; microorganism count ([4]; 0.2%, after 2 hours): 0 per ml; microorganism count ([4]; 0.2%, after 20 hours): 0 per ml; number of microorganisms ([4]; 2%): 10 per ml; microorganism count ([4]; 2%, after 2 hours): 0 per ml; microorganism count ([4]; 2%, after 20 hours): 0 per ml; microorganism count [5]: 0 per ml |
| CCOC(=O)CC(=O)C(C)C [4-methyl-3-oxo-pentanoic acid ethyl ester] | 0 | 0 | 0 | 0 | 3981 | 0 | 0 | 0 | 200 | 0 | 0 | 0 | 0 | 0 | 3981 | 1000 | 1000 | 0 | 5012 | 0 | number of microorganisms (Enter. cloacae; 2 hrs): 0; number of microorganisms (Enter. cloacae; 20 hrs): 0; number of microorganisms ([3]; 2 hrs): 0; number of microorganisms ([3]; 20 hrs): 0; number of microorganisms (Staf. aureus ATCC 6535; 2 hrs): 0; number of microorganisms (Staf. aureus ATCC 6535; 20 hrs): 0; microorganism count ([4]; 0.2%, after 2 hours): 10 per ml; microorganism count ([4]; 0.2%, after 20 hours): 10 per ml; number of microorganisms ([4]; 2%): 0 per ml; microorganism count ([4]; 2%, after 2 hours): 0 per ml; microorganism count ([4]; 2%, after 20 hours): 0 per ml; microorganism count [5]: 0 per ml |
